Results published in publication PMC2802056 (The Journal of neuroscience : the official journal of the …, 2009).

What was measured:
[1] = test system: ASIC1a; conditions: cited from earlier work; for effect on steady-state desensitization of mouse ASIC1a: ref Sherwood and Askwith, 2008
[2] = test system: proton-gated currents in cortical neurons; type: cell-based, mouse; conditions: conditioning pH 7.2
[3] = target: T1, mouse ASIC1a (Mus musculus, UniProt Q6NXK8); test: Competition of Big Dynorphin with PcTx1 for ASIC1a modulation, Xenopus oocytes; type: cell-based; conditions: conditioning pH 7.2; PcTx1 0.2 µM or Big Dynorphin 1 µM alone
T1 sequence (Q6NXK8 1-526): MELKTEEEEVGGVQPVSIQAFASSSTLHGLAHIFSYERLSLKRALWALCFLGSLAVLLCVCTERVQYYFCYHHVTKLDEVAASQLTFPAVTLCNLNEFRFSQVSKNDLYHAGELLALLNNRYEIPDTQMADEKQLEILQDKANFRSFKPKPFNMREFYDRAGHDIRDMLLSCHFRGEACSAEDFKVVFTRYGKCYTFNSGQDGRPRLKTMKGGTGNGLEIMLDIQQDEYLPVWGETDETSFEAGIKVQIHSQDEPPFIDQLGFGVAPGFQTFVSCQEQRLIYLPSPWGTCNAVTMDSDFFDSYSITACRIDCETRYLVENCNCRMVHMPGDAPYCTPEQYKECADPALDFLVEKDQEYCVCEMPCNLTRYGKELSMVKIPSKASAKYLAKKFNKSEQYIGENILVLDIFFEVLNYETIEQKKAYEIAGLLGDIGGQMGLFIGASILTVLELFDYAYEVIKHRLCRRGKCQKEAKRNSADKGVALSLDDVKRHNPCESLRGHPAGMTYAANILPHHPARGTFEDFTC

[4] = test system: ASIC1a:F352L; test: Steady-state desensitization of mutant ASIC1a:F352L; type: cell-based, mouse; conditions: peptide alone; conditioning pH 6.65; n = 3

FRRFamide
effect on steady-state desensitization of mouse ASIC1a [1]: prevented steady-state desensitization of mouse ASIC1a

C=CCN1CC[C@]23c4c5ccc(O)c4O[C@H]2C(=O)CC[C@@]3(O)[C@H]1C5 [Naloxone]
effect of antagonist alone on proton-gated current [2]: neither of which had any affect on proton-gated currents alone

FMRFamide
competition with PcTx1 ([1]; ref Salinas et al., 2006): does not compete with PcTx1 | effect on steady-state desensitization of mouse ASIC1a [1]: but not FMRFamide, prevented steady-state desensitization of mouse ASIC1a

PcTx1
effect on ASIC1a steady-state desensitization, peptide alone [3]: steady-state desensitization induced by pH 7.2 was enhanced and acid-evoked current was reduced | effect on steady-state desensitization of ASIC1a:F352L [4]: PcTx1 alone had no effect | effect on ASIC1a steady-state desensitization ([1]; ref Escoubas et al., 2000, Chen et al., 2006a, Salinas et al., 2006): specifically binds the extracellular domain of ASIC1 to enhance the proton-sensitivity of steady-state desensitization
